Calls of active or inactive are those of the source.
Tests used:
[1] = target: G-protein coupled receptor 35 (Homo sapiens, UniProt Q9HC97); assay: inhibition of zaprinast-stimulated GPR35 beta-arrestin translocation – imaging, U2OS, beta-arrestin-GFP, zaprinast agonist, primary screen (AID 2058); type: functional;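 further: antagonist potency meaning inhibition of agonist-induced arrestin redistribution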
[2] = target: T1, Replicative DNA helicase DnaB (Mycobacterium tuberculosis, UniProt P9WMR3); assay: DnaB intein splicing inhibitors, dose response, biochemical, cell-free fluorescence (AID 449749); type: functional
T1 sequence (P9WMR3 whole entry): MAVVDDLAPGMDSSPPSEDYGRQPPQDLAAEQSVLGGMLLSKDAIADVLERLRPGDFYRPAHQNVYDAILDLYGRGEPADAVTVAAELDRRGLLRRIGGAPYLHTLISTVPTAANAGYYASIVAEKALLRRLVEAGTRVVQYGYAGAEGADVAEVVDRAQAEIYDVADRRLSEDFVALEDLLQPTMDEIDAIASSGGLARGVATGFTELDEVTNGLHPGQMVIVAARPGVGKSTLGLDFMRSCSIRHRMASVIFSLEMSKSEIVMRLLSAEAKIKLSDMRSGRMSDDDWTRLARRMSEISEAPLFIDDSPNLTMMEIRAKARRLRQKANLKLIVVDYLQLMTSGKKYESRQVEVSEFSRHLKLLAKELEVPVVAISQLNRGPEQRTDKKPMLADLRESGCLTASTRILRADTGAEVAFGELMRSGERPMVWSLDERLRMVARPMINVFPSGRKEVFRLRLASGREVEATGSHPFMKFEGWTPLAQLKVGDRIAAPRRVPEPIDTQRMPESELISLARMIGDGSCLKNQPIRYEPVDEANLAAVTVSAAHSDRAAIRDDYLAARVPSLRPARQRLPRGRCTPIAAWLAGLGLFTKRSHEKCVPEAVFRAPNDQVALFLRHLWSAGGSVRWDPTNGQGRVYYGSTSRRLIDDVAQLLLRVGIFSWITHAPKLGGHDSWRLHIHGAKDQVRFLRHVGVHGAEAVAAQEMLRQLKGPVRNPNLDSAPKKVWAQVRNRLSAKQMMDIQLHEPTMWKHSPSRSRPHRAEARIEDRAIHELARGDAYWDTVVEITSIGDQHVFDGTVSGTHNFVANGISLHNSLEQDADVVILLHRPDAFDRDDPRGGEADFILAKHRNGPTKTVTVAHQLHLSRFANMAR

[3] = target: T2, Protein RecA (Mycobacterium tuberculosis, UniProt P9WHJ3); assay: Fluorescence Cell-Free Homogeneous Dose Retest to Identify Inhibitors of RecA-Intein Splicing Activity. [Related pubchem assays (depositor defined):AID2097, AID2223, AID489010, AID492950]; type: functional
T2 sequence (P9WHJ3 whole entry): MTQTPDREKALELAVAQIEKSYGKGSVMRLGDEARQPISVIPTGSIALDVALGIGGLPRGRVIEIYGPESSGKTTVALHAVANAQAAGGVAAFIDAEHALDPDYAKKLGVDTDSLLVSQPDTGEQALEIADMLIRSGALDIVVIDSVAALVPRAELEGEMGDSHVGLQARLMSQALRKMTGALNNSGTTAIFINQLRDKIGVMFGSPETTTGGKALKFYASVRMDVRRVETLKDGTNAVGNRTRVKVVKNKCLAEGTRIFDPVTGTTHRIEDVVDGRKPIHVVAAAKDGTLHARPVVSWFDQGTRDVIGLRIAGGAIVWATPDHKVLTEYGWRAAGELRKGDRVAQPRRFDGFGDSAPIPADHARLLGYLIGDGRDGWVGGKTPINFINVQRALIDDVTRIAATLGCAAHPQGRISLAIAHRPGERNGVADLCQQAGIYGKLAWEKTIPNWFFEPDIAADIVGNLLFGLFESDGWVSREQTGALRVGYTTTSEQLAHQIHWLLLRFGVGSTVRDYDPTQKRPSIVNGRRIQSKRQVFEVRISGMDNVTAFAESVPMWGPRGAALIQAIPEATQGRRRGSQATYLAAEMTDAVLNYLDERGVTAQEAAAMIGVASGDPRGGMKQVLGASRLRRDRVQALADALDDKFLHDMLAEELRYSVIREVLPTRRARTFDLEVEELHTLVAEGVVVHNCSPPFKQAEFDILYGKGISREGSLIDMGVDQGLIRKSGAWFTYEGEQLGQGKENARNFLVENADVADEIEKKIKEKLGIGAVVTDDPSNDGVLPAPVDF

[4] = target: Melanin-concentrating hormone receptor 1 (Homo sapiens, UniProt Q99705); assay: Late-stage fluorescence-based counterscreen for antagonists of the G-protein coupled receptor 7 (GPR7): cell-based dose response assay to identify antagonists of the melanin-concentrating hormone receptor 1 (MCHR1). [Related pubchem assays (depositor defined):AID1861, AID1880, AID1952, AID2148, AID2251, AID2257, AID485339]; type: functional;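 further: stimulated with 30 nM MCH peptide agonist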
Melanin-concentrating hormone receptor 1, sequence (Q99705 whole entry): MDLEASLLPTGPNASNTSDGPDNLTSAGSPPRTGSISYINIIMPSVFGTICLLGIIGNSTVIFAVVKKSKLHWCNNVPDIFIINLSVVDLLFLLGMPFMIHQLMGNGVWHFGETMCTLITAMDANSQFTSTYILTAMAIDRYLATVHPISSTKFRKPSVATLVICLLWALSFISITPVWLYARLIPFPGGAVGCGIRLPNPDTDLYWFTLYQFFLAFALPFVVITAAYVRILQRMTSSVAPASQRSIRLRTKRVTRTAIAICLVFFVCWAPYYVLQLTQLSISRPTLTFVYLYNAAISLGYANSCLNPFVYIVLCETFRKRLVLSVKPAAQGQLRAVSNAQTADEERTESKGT

[5] = target: Scavenger receptor class B member 1 (Mus musculus, UniProt Q61009); assay: mouse SR-BI DiI-HDL uptake blockers – ldlA[mSR-BI] cells, fluorescence, cherry pick, dose response (AID 493194); type: functional, cell-based;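 further: cellular uptake of fluorescent DiI-labeled HDL measured as cell fluorescence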
Scavenger receptor class B member 1, sequence (Q61009 whole entry): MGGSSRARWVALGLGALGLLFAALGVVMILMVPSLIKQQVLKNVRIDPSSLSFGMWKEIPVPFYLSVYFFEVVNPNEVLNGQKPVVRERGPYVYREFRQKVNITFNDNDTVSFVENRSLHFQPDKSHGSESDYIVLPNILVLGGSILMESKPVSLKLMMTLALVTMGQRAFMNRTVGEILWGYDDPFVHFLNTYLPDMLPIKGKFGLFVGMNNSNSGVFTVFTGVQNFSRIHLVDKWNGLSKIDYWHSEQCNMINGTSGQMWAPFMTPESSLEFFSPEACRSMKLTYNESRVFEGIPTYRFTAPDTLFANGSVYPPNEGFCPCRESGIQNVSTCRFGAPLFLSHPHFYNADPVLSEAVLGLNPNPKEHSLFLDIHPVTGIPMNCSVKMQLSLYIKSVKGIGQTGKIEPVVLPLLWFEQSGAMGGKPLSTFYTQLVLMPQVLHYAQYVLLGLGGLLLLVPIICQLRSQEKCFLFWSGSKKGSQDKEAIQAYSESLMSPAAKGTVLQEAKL

[6] = test system: Trypanosoma cruzi; assay: anti-trypanosomal activity in host cells – cell-based, plate reader, dry powder, set 3, dose response (AID 493197); type: functional
[7] = target: T3, Eukaryotic translation initiation factor 2-alpha kinase 3 (Homo sapiens, UniProt Q9NZJ5); assay: Dose response cell-based high-throughput screening assay to measure PERK inhibition. [Related pubchem assays: 1416 ]; type: functional
T3 sequence (Q9NZJ5 whole entry): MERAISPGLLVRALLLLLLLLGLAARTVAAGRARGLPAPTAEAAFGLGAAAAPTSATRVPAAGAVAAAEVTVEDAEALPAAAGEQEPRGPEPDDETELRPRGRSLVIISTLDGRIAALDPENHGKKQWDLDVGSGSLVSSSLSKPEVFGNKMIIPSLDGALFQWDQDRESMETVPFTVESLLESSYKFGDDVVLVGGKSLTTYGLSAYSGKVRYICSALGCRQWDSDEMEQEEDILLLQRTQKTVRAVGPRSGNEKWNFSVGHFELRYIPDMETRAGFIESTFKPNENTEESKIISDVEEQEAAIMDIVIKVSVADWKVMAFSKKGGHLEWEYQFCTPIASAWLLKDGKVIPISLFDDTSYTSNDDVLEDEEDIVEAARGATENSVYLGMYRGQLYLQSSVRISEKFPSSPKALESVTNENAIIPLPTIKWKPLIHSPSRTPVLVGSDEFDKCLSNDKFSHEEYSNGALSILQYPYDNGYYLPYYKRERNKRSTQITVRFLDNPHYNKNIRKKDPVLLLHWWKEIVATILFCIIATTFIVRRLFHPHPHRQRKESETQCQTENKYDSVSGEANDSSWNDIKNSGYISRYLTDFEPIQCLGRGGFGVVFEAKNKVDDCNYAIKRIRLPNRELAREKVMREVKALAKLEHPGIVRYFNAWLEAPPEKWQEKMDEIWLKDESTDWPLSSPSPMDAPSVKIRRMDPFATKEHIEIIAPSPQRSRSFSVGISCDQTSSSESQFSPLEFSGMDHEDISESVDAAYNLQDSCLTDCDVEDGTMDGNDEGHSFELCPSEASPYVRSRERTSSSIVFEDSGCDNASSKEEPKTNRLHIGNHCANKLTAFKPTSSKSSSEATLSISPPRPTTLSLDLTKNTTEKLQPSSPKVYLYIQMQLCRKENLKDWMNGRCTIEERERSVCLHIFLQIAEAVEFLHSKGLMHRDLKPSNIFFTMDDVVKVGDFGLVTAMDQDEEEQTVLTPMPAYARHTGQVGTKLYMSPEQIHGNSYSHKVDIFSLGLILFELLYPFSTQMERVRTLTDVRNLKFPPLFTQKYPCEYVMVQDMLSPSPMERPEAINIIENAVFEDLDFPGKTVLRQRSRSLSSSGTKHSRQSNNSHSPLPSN

[8] = target: T3, Eukaryotic translation initiation factor 2-alpha kinase 3; assay: Counterscreen assay for PERK inhibitors: Dose response cell-based high throughput screening assay to measure inhibition of PERK at 6 hours. [Related pubchem assays: 1522, 1416 ]; type: functional

G-protein coupled receptor 35, sequence (Q9HC97 whole entry): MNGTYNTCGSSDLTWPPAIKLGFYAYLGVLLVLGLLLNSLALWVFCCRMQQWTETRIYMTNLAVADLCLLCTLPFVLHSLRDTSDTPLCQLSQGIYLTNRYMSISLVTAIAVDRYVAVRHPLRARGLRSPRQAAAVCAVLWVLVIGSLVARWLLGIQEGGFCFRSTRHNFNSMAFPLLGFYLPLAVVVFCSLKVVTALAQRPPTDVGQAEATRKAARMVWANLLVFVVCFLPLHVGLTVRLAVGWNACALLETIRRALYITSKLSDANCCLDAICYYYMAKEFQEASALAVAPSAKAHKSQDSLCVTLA

Question: What does the source list for `O=C(/C=C/c1ccco1)c1ccc(NC(=O)C23CC4CC(CC(C4)C2)C3)cc1`?
Answer: IC50 [1]: 4.96 µM (active); AC50 [2]: > 380 µM (inactive); EC50 [3]: 55.5 µM (active)

Question: For `COc1ccc(Oc2c(C)cnn(-c3ccc(C(C)C)cc3)c2=O)cc1`, which IC50 [4] is on record?
Answer: 9.8 µM (active)

Question: Which AC50 [5] does the source give for `CCOC(=O)N1CCN(C(=O)C2CCN(C(=O)Nc3ccccc3)CC2)CC1` here?
Answer: 136 µM (active)

Question: `COc1ccc(C(C)NC(=O)C2CCN(CCCc3ccccc3)CC2)cc1OC` (stereo not drawn) was tested. Which AC50 [6] did it give?
Answer: 66.3 µM (active)

Question: `O=C(CCc1ccccc1)NCC(=O)N/N=C/c1ccc(O)cc1O` was tested. Which EC50 [7] did it give?
Answer: > 55.7 µM (not active)

Question: And the EC50 [8]?
Answer: > 55.7 µM (not active)

Reference: ChEMBL document CHEMBL1201862, “PubChem BioAssay data set” (2004)
